The target in one experiment is D816V KIT (Homo sapiens (Human), UniProt P10721, D816V). Description: KIT D816V assay at Km (Caliper electrophoretic mobility shift). The following applies: biochemical, 15 uM ATP (Km), 90 minutes at 25 C; read-out: INH KIT D816V.
For the next experiment, the target named is PDGFRA D842V (Homo sapiens (Human), UniProt P16234, D842V). Description: PDGFRA D842V assay at Km (Caliper electrophoretic mobility shift). The following applies: biochemical, 15 uM ATP (Km), 90 minutes at 25 C; read-out: INH PDFGRA D842V.
The target of experiment [1] is KIT D816V kinase activity (KIT autophosphorylation at tyrosine 719) in HMC1.2 cells (Homo sapiens (Human), UniProt P10721, D816V/V560G). The experiment is described as follows: HMC1.2 autophosphorylation assay (phospho-Y719 c-KIT AlphaLISA). The class given is cell-based. The conditions noted are these: HMC1.2 mast cell leukemia cell line (KIT V560G, D816V), 90 minutes compound; read-out: INH-KIT-PHOS-HMC1.2. A general note: Alpha assays give light when donor and acceptor beads are brought close together.

The record followed here is US10807985B2 (Blueprint Medicines Corporation, priority 2013, dated 2020).

Each structure is given as a SMILES string. Bounds are passed on as bounds.

Chain of KIT D816V kinase activity (KIT autophosphorylation at tyrosine 719) in HMC1.2 cells (P10721 26-976 V560G/D816V): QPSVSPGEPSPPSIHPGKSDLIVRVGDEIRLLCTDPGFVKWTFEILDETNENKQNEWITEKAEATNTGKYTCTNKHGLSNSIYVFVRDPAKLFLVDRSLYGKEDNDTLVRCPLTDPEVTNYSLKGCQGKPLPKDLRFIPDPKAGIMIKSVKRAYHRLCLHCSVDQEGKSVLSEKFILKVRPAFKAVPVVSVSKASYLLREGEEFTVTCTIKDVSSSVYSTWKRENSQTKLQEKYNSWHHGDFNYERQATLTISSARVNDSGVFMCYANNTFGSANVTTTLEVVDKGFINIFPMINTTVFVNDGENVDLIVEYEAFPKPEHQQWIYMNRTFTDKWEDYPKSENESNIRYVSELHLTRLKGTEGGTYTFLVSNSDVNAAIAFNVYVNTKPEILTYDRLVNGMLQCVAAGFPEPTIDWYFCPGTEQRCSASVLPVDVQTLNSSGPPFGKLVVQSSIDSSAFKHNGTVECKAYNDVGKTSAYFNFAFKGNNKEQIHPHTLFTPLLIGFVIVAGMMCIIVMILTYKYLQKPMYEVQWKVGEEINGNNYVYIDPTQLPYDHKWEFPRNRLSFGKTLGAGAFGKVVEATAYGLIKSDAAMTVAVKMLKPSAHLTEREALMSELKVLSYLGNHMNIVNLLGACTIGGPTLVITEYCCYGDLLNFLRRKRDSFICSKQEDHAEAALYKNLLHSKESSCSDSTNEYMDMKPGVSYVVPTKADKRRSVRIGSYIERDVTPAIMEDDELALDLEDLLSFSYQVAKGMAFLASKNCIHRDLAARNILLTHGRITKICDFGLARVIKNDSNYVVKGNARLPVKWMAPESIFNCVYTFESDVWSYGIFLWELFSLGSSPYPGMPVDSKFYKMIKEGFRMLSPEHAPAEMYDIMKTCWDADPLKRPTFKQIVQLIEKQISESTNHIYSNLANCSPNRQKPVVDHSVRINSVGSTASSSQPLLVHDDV
Chain of D816V KIT (P10721 26-976 D816V): as the sequence (P10721 26-976 V560G/D816V) above, with G535V counted along it
Chain of PDGFRA D842V (P16234 24-1089 D842V): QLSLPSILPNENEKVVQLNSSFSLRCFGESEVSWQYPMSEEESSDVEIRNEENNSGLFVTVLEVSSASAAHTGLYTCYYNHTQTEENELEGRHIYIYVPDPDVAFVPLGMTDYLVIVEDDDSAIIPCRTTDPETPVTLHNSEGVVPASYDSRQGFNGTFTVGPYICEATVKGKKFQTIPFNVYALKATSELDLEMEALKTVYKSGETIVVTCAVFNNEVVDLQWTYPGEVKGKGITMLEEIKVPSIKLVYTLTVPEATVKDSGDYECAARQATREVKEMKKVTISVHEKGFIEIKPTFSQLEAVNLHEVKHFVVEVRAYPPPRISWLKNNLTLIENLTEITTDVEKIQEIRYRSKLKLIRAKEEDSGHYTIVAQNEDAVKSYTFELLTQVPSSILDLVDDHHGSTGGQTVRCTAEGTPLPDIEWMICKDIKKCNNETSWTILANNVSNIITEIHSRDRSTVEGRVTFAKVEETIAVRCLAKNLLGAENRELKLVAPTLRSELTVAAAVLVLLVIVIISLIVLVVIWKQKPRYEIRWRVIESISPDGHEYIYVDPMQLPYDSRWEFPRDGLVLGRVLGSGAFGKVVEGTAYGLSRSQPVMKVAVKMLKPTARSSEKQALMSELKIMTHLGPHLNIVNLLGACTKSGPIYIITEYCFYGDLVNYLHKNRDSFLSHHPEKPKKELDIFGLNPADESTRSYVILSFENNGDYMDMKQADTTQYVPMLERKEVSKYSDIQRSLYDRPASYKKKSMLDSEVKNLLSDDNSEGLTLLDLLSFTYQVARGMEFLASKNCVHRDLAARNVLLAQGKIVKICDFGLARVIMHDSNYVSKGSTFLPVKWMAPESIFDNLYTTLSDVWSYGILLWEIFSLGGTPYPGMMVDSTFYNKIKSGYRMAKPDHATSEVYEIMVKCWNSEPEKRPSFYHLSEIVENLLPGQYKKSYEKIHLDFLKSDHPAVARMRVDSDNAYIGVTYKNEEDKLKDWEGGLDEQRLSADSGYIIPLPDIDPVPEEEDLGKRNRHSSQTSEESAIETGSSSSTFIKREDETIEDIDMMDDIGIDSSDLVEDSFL

Take `Cn1cc(-c2cc3c(N4CCN(c5ncc([C@](C)(N)c6ccccc6)cn5)CC4)ncnn3c2)cn1` [Compound 21]: the IC50 on D816V KIT is 1.01 to 10 nM; at PDGFRA D842V, < 1 nM; in experiment [1] it was 50 to 100 nM.

Consider `C[C@](O)(c1cnc(N2CCN(c3ncnn4cc(-c5cn[nH]c5)cc34)CC2)nc1)c1ccc(F)cc1F` [Compound 57], for which the IC50 was < 1 nM at D816V KIT, 1.01 to 10 nM on PDGFRA D842V and < 50 nM in experiment [1].

Consider `Cn1cc(-c2cc3c(N4CCN(c5ncc([C@@](C)(N)c6ccccc6)cn5)CC4)ncnn3c2)cn1` [Compound 22], for which the IC50 on D816V KIT is < 1 nM; on PDGFRA D842V, < 1 nM; in experiment [1], < 50 nM.

On to `Cn1cc(-c2cc3c(N4CCN(c5ncc([C@](C)(O)c6ccc(Cl)cc6)cn5)CC4)ncnn3c2)cn1` [Compound 84], for which the IC50 on D816V KIT is 1.01 to 10 nM; at PDGFRA D842V, 1.01 to 10 nM; in experiment [1], < 50 nM.

Consider `Cn1cc(-c2cc3c(N4CCN(c5ncc([C@@](O)(c6ccc(F)cc6)C(F)F)cn5)CC4)ncnn3c2)cn1` [Compound 117], for which the IC50 at D816V KIT is < 1 nM; at PDGFRA D842V it was 1.01 to 10 nM; in experiment [1], < 50 nM.

As to `C[C@](O)(c1ccc(F)cc1)c1cnc(N2CCN(c3ncnn4cc(-c5ccc(F)cc5)cc34)CC2)nc1` [Compound 65], the results for the IC50 (on D816V KIT; at PDGFRA D842V; in experiment [1]) were 1.01 to 10 nM, 1.01 to 10 nM and 100 to 1000 nM, respectively.

In the case of `O[C@@](c1ccc(F)cc1)(c1cnc(N2CCN(c3ncnn4cc(-c5cn[nH]c5)cc34)CC2)nc1)C(F)F` [Compound 100], the values for the IC50 (on D816V KIT; at PDGFRA D842V; in experiment [1]) were < 1 nM, < 1 nM and < 50 nM, respectively.

Consider `C[C@@H]1CN(c2ncnn3cc(-c4cnn(C)c4)cc23)CCN1c1ncc([C@](C)(O)c2ccc(F)cc2)cn1` [Compound 76], for which the figures for the IC50 (on D816V KIT; on PDGFRA D842V; in experiment [1]) were 1.01 to 10 nM, 1.01 to 10 nM and 50 to 100 nM, respectively.

On to `C[C@](O)(c1ccc(F)cc1)c1cnc(N2CCN(c3ncnn4cc(-c5cn[nH]c5)cc34)CC2)nc1` [Compound 30], for which the IC50 on D816V KIT is < 1 nM; on PDGFRA D842V, < 1 nM; in experiment [1] it was < 50 nM.

For the compound `C[C@](N)(c1ccccc1)c1cnc(N2CCN(c3ncnn4cc(-c5ccc(F)cc5)cc34)CC2)nc1` [Compound 34], the IC50 on D816V KIT was < 1 nM; on PDGFRA D842V, < 1 nM; in experiment [1], 50 to 100 nM.

`COc1ccc(-c2cc3c(N4CCN(c5ncc(Cc6ccccc6)cn5)CC4)ncnn3c2)cc1` [Compound 18]: the IC50 on D816V KIT was 10 to 100 nM; at PDGFRA D842V it was 10 to 100 nM; in experiment [1], > 10000 nM.

Consider `Cn1cc(-c2cc3c(N4CCN(c5ncc(C(C)(C)c6ccc(F)cc6)cn5)CC4)ncnn3c2)cn1` [Compound 39], for which the IC50 on D816V KIT is 1.01 to 10 nM; at PDGFRA D842V it was < 1 nM; in experiment [1], < 50 nM.

For the compound `CO[C@](C)(c1ccc(F)cc1)c1cnc(N2CCN(c3ncnn4cc(-c5cnn(C)c5)cc34)CC2)nc1` [Compound 68], the figures for the IC50 (at D816V KIT; at PDGFRA D842V; in experiment [1]) were 1.01 to 10 nM, 1.01 to 10 nM and < 50 nM, respectively.

Turning to `COc1ccc(-c2cc3c(N4CCN(c5ncc([C@@](C)(O)c6ccc(F)cc6)cn5)CC4)ncnn3c2)cc1` [Compound 102], the IC50 on D816V KIT is 1.01 to 10 nM; on PDGFRA D842V it was 1.01 to 10 nM; in experiment [1] it was 50 to 100 nM.

As to `Cn1cc(-c2cc3c(N4CCN(c5ncc(C(C)(C)c6ccccc6)cn5)CC4)ncnn3c2)cn1` [Compound 20], the values for the IC50 (at D816V KIT; at PDGFRA D842V; in experiment [1]) were 1.01 to 10 nM, 1.01 to 10 nM and < 50 nM, respectively.

As to `CC[C@@H](c1ccc(F)cc1)c1cnc(N2CCN(c3ncnn4cc(-c5cnn(C)c5)cc34)CC2)nc1` (single isomer, unassigned) [Compound 41], the IC50 lay within 1.01 to 10 nM on D816V KIT, 1.01 to 10 nM on PDGFRA D842V and 50 to 100 nM in experiment [1].

`C[C@](N)(c1ccc(F)cc1)c1cnc(N2CCN(c3ncnn4cc(-c5cn[nH]c5)cc34)CC2)nc1` [Compound 26]: the IC50 is < 1 nM on D816V KIT, < 1 nM at PDGFRA D842V and < 50 nM in experiment [1].

On to `C[C@](O)(c1ccc(F)cc1)c1cnc(N2CCN(c3ncnn4cc(-c5ccccc5)cc34)CC2)nc1` [Compound 38], for which the values for the IC50 (at D816V KIT; on PDGFRA D842V; in experiment [1]) were 1.01 to 10 nM, 1.01 to 10 nM and 50 to 100 nM, respectively.

As to `Cc1ncc(-c2cc3c(N4CCN(c5ncc([C@](C)(O)c6ccc(F)cc6)cn5)CC4)ncnn3c2)s1` [Compound 87], the IC50 on D816V KIT fell in the range of 1.01 to 10 nM; on PDGFRA D842V it was 1.01 to 10 nM; in experiment [1], 100 to 1000 nM.

Regarding `Cn1cc(-c2cc3c(N4CCN(c5ncc([C@@](C)(O)c6ccc(F)cc6F)cn5)CC4)ncnn3c2)cn1` [Compound 94], the IC50 at D816V KIT was < 1 nM; on PDGFRA D842V, < 1 nM; in experiment [1], < 50 nM.

In the case of `Cn1cc(-c2cc3c(N4CCN(c5ncc([C@](C)(O)c6ccc(F)cc6)cn5)CC4)ncnn3c2)cn1` [Compound 45], the values for the IC50 (on D816V KIT; on PDGFRA D842V; in experiment [1]) were < 1 nM, < 1 nM and < 50 nM, respectively.

Take `C[C@H](c1ccccc1)c1cnc(N2CCN(c3ncnn4cc(-c5cnn(C)c5)cc34)CC2)nc1` [Compound 9, (R)-6-(1-methyl-1H-pyrazol-4-yl)-4-(4-(5-(1-phenylethyl)pyrimidin-2-yl)piperazin-1-yl)pyrrolo[1,2-f][1,2,4]triazine]: the IC50 at D816V KIT was 1.01 to 10 nM; at PDGFRA D842V, 1.01 to 10 nM; in experiment [1], < 50 nM.

With `Cn1cc(-c2cc3c(N4CCN(c5ncc([C@@](C)(CO)c6ccc(F)cc6)cn5)CC4)ncnn3c2)cn1` [Compound 78], the IC50 at D816V KIT was < 1 nM; on PDGFRA D842V, < 1 nM; in experiment [1] it was < 50 nM.

Regarding `Cn1cc(-c2cc3c(N4CCN(c5ncc([C@@](N)(c6ccc(F)cc6)C(F)F)cn5)CC4)ncnn3c2)cn1` [Compound 111], the values for the IC50 (on D816V KIT; on PDGFRA D842V; in experiment [1]) were < 1 nM, < 1 nM and < 50 nM, respectively.

As to `Cn1cc(-c2cc3c(N4CCN(c5ncc([C@](C)(O)c6c(F)cc(F)cc6F)cn5)CC4)ncnn3c2)cn1` [Compound 115], the IC50 on D816V KIT is 1.01 to 10 nM; at PDGFRA D842V it was < 1 nM; in experiment [1], < 50 nM.

For the compound `C[C@@H](c1ccccc1)c1cnc(N2CCN(c3ncnn4cc(-c5cnn(C)c5)cc34)CC2)nc1` [Compound 10, (S)-6-(1-methyl-1H-pyrazol-4-yl)-4-(4-(5-(1-phenylethyl)pyrimidin-2-yl)piperazin-1-yl)pyrrolo[1,2-f][1,2,4]triazine], the values for the IC50 (on D816V KIT; at PDGFRA D842V; in experiment [1]) were < 1 nM, < 1 nM and < 50 nM, respectively.

For the compound `Fc1ccccc1Sc1cnc(N2CCN(c3ncnn4cc(-c5cnn(C[C@@H]6CNCCO6)c5)cc34)CC2)nc1` [Compound 123, (S)-2-((4-(4-(4-(5-(2-fluorophenylthio)pyrimidin-2-yl)piperazin-1-yl)pyrrolo[1,2-f][1,2,4]triazin-6-yl)-1H-pyrazol-1-yl)methyl)morpholine], the values for the IC50 (at D816V KIT; on PDGFRA D842V; in experiment [1]) were 1.01 to 10 nM, 1.01 to 10 nM and 50 to 100 nM, respectively.

Consider `Cn1cc(-c2cc3c(N4CCN(c5ncc(Cc6ccc(F)cc6)cn5)CC4)ncnn3c2)cn1` [Compound 14], for which the IC50 at D816V KIT was < 1 nM; on PDGFRA D842V it was 1.01 to 10 nM; in experiment [1], < 50 nM.

For `CN(C)C(=O)c1ccc(-c2cc3c(N4CCN(c5ncc(Cc6ccccc6)cn5)CC4)ncnn3c2)cc1` [Compound 98], the IC50 on D816V KIT is < 1 nM; at PDGFRA D842V it was < 1 nM; in experiment [1] it was 100 to 1000 nM.

`C[C@@](O)(c1cnc(N2CCN(c3ncnn4cc(-c5cn[nH]c5)cc34)CC2)nc1)c1ccc(F)cc1F` [Compound 58]: the IC50 at D816V KIT and on PDGFRA D842V was < 1 nM each time.

On to `CCn1cc(-c2cc3c(N4CCN(c5ncc([C@@](C)(N)c6ccccc6)cn5)CC4)ncnn3c2)cn1` [Compound 35], for which the IC50 is < 1 nM on D816V KIT, < 1 nM on PDGFRA D842V and < 50 nM in experiment [1].

With `Cn1cc(-c2cc3c(N4CCN(c5ncc([C@](C)(CO)c6ccc(F)cc6)cn5)CC4)ncnn3c2)cn1` [Compound 79], the results for the IC50 (on D816V KIT; on PDGFRA D842V; in experiment [1]) were 1.01 to 10 nM, < 1 nM and < 50 nM, respectively.

In the case of `COc1cccc(-c2cc3c(N4CCN(c5ncc([C@@](C)(O)c6ccc(F)cc6)cn5)CC4)ncnn3c2)c1` [Compound 101], the IC50 was 10 to 100 nM at D816V KIT and 50 to 100 nM in experiment [1].

In the case of `Cn1cc(-c2cc3c(N4CCN(c5ncc([C@H](N)c6ccc(F)cc6)cn5)CC4)ncnn3c2)cn1` [Compound 28], the results for the IC50 (on D816V KIT; in experiment [1]) were 1.01 to 10 nM and < 50 nM, respectively.

With `Cn1cc(-c2cc3ncnc(N4CCN(c5ncc(C(C)(C)c6ccc(F)cc6)cn5)CC4)n3n2)cn1` [Compound 42], the figures for the IC50 (at D816V KIT; in experiment [1]) were 10 to 100 nM and 1000 to 10000 nM, respectively.

`Cn1cc(-c2cc3c(N4CCN(c5ncc([C@@](C)(N)c6ccc(F)cc6F)cn5)CC4)ncnn3c2)cn1` [Compound 85]: the IC50 was < 1 nM on D816V KIT and < 50 nM in experiment [1].

Turning to `Cn1cc(-c2cc3c(N4CCN(c5ncc([C@H](CO)c6ccc(F)cc6)cn5)CC4)ncnn3c2)cn1` [Compound 50], the IC50 at D816V KIT is 1.01 to 10 nM; in experiment [1], < 50 nM.

For the compound `Cn1cc(-c2cc3c(N4CCN(c5ncc([C@@](C)(O)c6ccccc6)cn5)CC4)ncnn3c2)cn1` [Compound 25], the IC50 on D816V KIT is < 1 nM; in experiment [1], < 50 nM.

For `Cn1cc(-c2cc3c(N4CCN(c5ncc([C@@](C)(N)c6c(F)cc(F)cc6F)cn5)CC4)ncnn3c2)cn1` [Compound 114], the figures for the IC50 (at D816V KIT; in experiment [1]) were < 1 nM and < 50 nM, respectively.

`Cn1cc(-c2cc3c(N4CCN(c5ncc(C6(c7ccc(F)cc7)COC6)cn5)CC4)ncnn3c2)cn1` [Compound 61]: the IC50 on D816V KIT is 1.01 to 10 nM; in experiment [1], 100 to 1000 nM.
